Laboratory results: patent publication US9809583B2 (priority 2014, dated 2017)

What was measured:
[1] = target: T1, androgen receptor (hAR) (Homo sapiens (Human), UniProt P10275); test: biochemical; format: binding; conditions: 1 nM [3H]MIB, hAR-transfected COS-7 cells, 2 hours; read-out: IC50 [nM] (mean ± SE)
Description: In order to examine binding ability of the agonists of the present invention to androgen receptors, the following in-vitro experiment was performed. African green monkey kidney fibroblast-like cell line, COS-7 (ATCC, #CRL-1651) was seeded in a 48-well plate at a density of 2.5×10^4 cells/well, and cultured for 24 hours. Then, a plasmid hAR-mixed medium was added thereto. […] Thereafter, the cells were lysed and the amount of [3H]MIB bound to the intracellular androgen receptors was measured using a radiation dosimeter.

[2] = target: T1, androgen receptor (hAR); test: Test of transcriptional activity (hAR / ARE-Luc dual-luciferase assay in CHO cells); format: cell-based; conditions: EC50 [nM] (mean ± SE), CHO cells with hAR and ARE-Luc, 24 hours; 10 nM DHT = 100%
How it was run: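 Compound at 0.1˜10,000 nM applied for 24 h to CHO cells carrying transfected human AR and an ARE-driven luciferase reporter. Cells were grown 24 h before transfection; readout was dual-luciferase luminescence.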

[3] = test system: castrated male rats; test: Efficacy test in castrated male rat (Hershberger assay); format: in vivo, SD (Sprague-Dawley) rat; conditions: castrated male SD rats, oral once a day for 14 days
Description: SD (Sprague-Dawley) male rats (7-week-old) were castrated under ketamine/xylazine anesthesia, and 5 rats were randomly assigned to one group. From the next day, the agonists were dissolved in a vehicle solution and orally administered at a dose of 5 ml per kg once a day for 14 days. As the vehicle, DMSO, Co-solvent, and DW were prepared at a ratio of 4:80:16 (v/v/v), and Co-solvent was prepared by mixing PEG400, Ethanol, and Tween 80 at a ratio of 85:10:5 (v/v/v). 24 hours after last administration of the drug, their body weight was measured and killed. Thereafter, levator ani muscle, ventral prostate, and seminal vesicles were removed and weighed (Hershberger assay). The following Table 6 represents the result of the efficacy test in castrated male rats.

T1 sequence (P10275 whole entry): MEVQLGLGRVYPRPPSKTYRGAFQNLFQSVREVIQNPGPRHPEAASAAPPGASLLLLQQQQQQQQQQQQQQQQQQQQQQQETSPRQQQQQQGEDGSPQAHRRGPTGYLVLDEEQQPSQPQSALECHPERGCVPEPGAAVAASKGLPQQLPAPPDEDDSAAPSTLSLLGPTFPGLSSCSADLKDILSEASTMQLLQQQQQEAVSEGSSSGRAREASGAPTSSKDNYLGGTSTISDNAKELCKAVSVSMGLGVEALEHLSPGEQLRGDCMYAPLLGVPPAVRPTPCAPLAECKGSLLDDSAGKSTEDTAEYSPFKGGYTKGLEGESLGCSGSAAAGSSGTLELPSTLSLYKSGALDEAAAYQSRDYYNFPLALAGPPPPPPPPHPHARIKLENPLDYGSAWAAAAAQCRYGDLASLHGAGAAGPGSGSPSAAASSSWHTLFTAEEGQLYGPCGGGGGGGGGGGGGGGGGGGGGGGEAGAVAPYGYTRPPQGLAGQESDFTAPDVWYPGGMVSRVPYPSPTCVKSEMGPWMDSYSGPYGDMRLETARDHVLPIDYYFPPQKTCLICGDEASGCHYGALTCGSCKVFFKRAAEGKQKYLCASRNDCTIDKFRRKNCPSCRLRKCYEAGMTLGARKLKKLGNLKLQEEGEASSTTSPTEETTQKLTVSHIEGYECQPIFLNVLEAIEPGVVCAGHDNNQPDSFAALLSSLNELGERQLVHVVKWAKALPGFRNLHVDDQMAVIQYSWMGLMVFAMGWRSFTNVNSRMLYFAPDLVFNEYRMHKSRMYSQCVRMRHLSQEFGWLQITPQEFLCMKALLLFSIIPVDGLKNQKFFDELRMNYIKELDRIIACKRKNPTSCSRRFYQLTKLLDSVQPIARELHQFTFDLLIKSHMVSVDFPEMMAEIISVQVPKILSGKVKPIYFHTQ

Row | SMILES | IC50 [1] | EC50 [2] | levator ani muscle weight % relative to intact control group ([3]; 0.3 mg/kg) | seminal vesicles weight % relative to intact control group ([3]; 0.3 mg/kg) | ventral prostate weight % relative to intact control group ([3]; 0.3 mg/kg) | levator ani muscle weight % relative to intact control group ([3]; 1 mg/kg) | seminal vesicles weight % relative to intact control group ([3]; 1 mg/kg) | ventral prostate weight % relative to intact control group ([3]; 1 mg/kg) | levator ani muscle weight % relative to intact control group ([3]; 3 mg/kg) | seminal vesicles weight % relative to intact control group ([3]; 3 mg/kg) | ventral prostate weight % relative to intact control group ([3]; 3 mg/kg) | other results
1 | N#Cc1ccc(OC[C@@H]2CN(c3ccc(C#N)c(C(F)(F)F)c3)[C@@H](C(F)(F)F)O2)cc1 [Example 19, 4-((2R,5S)-5-((4-cyanophenoxy)methyl)-2-(trifluoromethyl)oxazolidin-3-yl)-2-(trifluoromethyl)benzonitrile] | 7.6 nM | 1 nM | 7.2 ± 4.3% | 4.8 ± 1.3% | 1.7 ± 0.6% | 45.9 ± 5.8% | 78.2 ± .1% | 10.2 ± 3.9% | 70.6 ± 6.6% | 17.3 ± 5.6% | 11.4 ± 3.0% | levator ani muscle weight % relative to intact control group ([3]; 10 mg/kg): 63.9 ± 4.8%; seminal vesicles weight % relative to intact control group ([3]; 10 mg/kg): 22.9 ± 4.3%; ventral prostate weight % relative to intact control group ([3]; 10 mg/kg): 14.4 ± 2.7%; levator ani muscle weight % relative to intact control group ([3]; 30 mg/kg): 78.4 ± 11.0%; seminal vesicles weight % relative to intact control group ([3]; 30 mg/kg): 33.4 ± 2.0%; ventral prostate weight % relative to intact control group ([3]; 30 mg/kg): 18.3 ± 4.5%; levator ani muscle weight % relative to intact control group ([3]; 100 mg/kg): 68.3 ± 7.3%; seminal vesicles weight % relative to intact control group ([3]; 100 mg/kg): 36.4 ± 9.2%; ventral prostate weight % relative to intact control group ([3]; 100 mg/kg): 18.0 ± 5.2%
2 | CC(=O)Nc1ccc(OC[C@@H]2CN(c3ccc(C#N)c(C(F)(F)F)c3)[C@@H](C(F)(F)F)O2)cc1 [Example 25, N-(4-(((2R,5S)-3-(4-cyano-3-(trifluoromethyl)phenyl)-2-(trifluoromethyl)oxazolidin-5-yl)methoxy)phenyl)acetamide] | 8.5 nM | 0.7 nM | 38.5 ± 4.8% | 3.4 ± 0.4% | 4.8 ± 1.6% | 61.1 ± 6.3% | 4.7 ± 1.2% | 10.9 ± 3.4% | 79.8 ± 6.7% | 8.7 ± 1.6% | 12.7 ± 2.5% | levator ani muscle weight % relative to intact control group ([3]; 0.01 mg/kg): 6.7 ± 1.6%; seminal vesicles weight % relative to intact control group ([3]; 0.01 mg/kg): 0.9 ± 0.2%; ventral prostate weight % relative to intact control group ([3]; 0.01 mg/kg): 1.8 ± 0.3%; levator ani muscle weight % relative to intact control group ([3]; 0.03 mg/kg): 8.4 ± 1.5%; seminal vesicles weight % relative to intact control group ([3]; 0.03 mg/kg): 0.7 ± 0.2%; ventral prostate weight % relative to intact control group ([3]; 0.03 mg/kg): 1.0 ± 0.4%; levator ani muscle weight % relative to intact control group ([3]; 0.1 mg/kg): 26.5 ± 5.8%; seminal vesicles weight % relative to intact control group ([3]; 0.1 mg/kg): 0.9 ± 0.2%; ventral prostate weight % relative to intact control group ([3]; 0.1 mg/kg): 3.2 ± 0.9%
